In PubChem BioAssay (NCI):
Several values for one entry are separate records, joined by “and”; a condition that tells them apart may be missing. Equal entries are not always repeated.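 Test compounds were applied to cells in 96-well plates for 48 hours at 5 doses. At the GI50, growth is halved. At the TGI there is no net growth.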

Experiments:
Test in all cases: growth of human tumour cells (NCI), 48 h
[1] = test system: OVCAR-5 ovarian
[2] = test system: T-47D breast
[3] = test system: NCI-H226 lung
[4] = test system: PC-3 prostate
[5] = test system: SK-OV-3 ovarian
[6] = test system: SNB-75 CNS
[7] = test system: RPMI-8226 leukemia
[8] = test system: RXF 393 renal
[9] = test system: SW-620 colon
[10] = test system: SF-268 CNS

SMILES	GI50 [1]	TGI [1]	GI50 [2]	TGI [2]	GI50 [3]	TGI [3]	GI50 [4]	TGI [4]	GI50 [5]	TGI [5]	GI50 [6]	TGI [6]	GI50 [7]	TGI [7]	GI50 [8]	TGI [8]	GI50 [9]	TGI [9]	GI50 [10]	TGI [10]
Cc1cc([N+](=O)[O-])c(NS(=O)(=O)c2cccc(C(=O)O)c2)cc1-c1cccnc1	> 100 µM	> 100 µM	> 100 µM	> 100 µM	> 100 µM	> 100 µM	> 100 µM	> 100 µM	> 100 µM	> 100 µM	> 100 µM	> 100 µM	> 100 µM	> 100 µM	> 100 µM	> 100 µM	> 100 µM	> 100 µM	> 100 µM	> 100 µM
COc1ccc2c(c1)NC1=C(C(=O)OC1)C2c1cc(OC)c2c(c1)OCO2 (stereo not drawn)	0.0817 µM	> 100 µM	> 100 µM	> 100 µM	< 0.0153 µM		0.028 µM	> 100 µM	0.0204 µM		0.0426 µM	43.3 µM	< 0.0198 µM	> 100 µM	< 0.0167 µM	> 72.4 µM	< 0.0192 µM	> 100 µM	< 0.021 µM	> 100 µM
O=C1CCCCCCCCCCC1CN1CCCC1 (stereo not drawn)		> 100 µM		> 100 µM		> 100 µM		> 100 µM		> 100 µM		> 100 µM		> 100 µM		65.4 µM		> 100 µM		> 100 µM
O=C1C(Nc2ccc(Cl)cc2)=C(I)C(=O)c2ncccc21	1.58 µM	3 µM	1 µM	3.54 µM	1.52 µM	3.03 µM	1.12 µM	2.6 µM	4.28 µM	18 µM	1.31 µM	3.09 µM	1.33 µM	5 µM	1.69 µM	3.12 µM	0.378 µM	2 µM	1.37 µM	3.23 µM
C[C@H]1CC[C@@]2(NC1)O[C@H]1C[C@H]3[C@@H]4CC[C@H]5C[C@@H](O)CC[C@]5(C)[C@H]4CC[C@]3(C)[C@H]1[C@@H]2C	8.71 µM	18.4 µM and > 100 µM	12.3 µM	50 µM and > 100 µM	13.8 µM	35.8 µM and > 100 µM	12.5 µM	42 µM and > 100 µM	22.7 µM	50 µM and > 100 µM	10.9 µM	24.7 µM and > 100 µM	7.82 µM	31.4 µM and > 100 µM	> 50 µM	> 50 µM	24.9 µM	50 µM	14 µM	50 µM and > 100 µM
COc1cccc(-c2c[nH]c3c(N/N=C/c4ccncc4)ncnc23)c1	4.93 µM	17.2 µM	3.07 µM	> 15.5 µM	1.75 µM	> 16 µM	4.53 µM	> 25 µM	0.903 µM	3.91 µM	1.47 µM	6.78 µM	5.62 µM	14.4 µM	0.501 µM	2.16 µM	1.5 µM	5.39 µM	3.44 µM	13.3 µM
N#C/C(=C\c1ccsc1)c1nc2ccccc2o1	> 100 µM	> 100 µM	44.7 µM	> 100 µM	> 100 µM	> 100 µM	> 100 µM	> 100 µM	40.7 µM	> 100 µM	24.5 µM	65.5 µM	61.7 µM	> 100 µM	39.8 µM	> 100 µM	> 100 µM	> 100 µM	38 µM	> 100 µM
Nc1ncnc2c1N=C(c1ccc3c(c1)OCO3)CC(c1ccc([N+](=O)[O-])cc1)N2 (stereo not drawn)	> 100 µM	> 100 µM	80.7 µM	> 100 µM	> 100 µM	> 100 µM	31.1 µM	> 100 µM	> 100 µM	> 100 µM	39.4 µM	> 100 µM	0.194 µM	49 µM	7.19 µM	63.1 µM	53.2 µM	> 100 µM	42 µM	> 100 µM
COc1cc2nc(N3CCCC3)nc(NCc3ccccc3)c2cc1OC	4.63 µM	16.8 µM	1.87 µM	4.29 µM	17.3 µM	40.4 µM	3.08 µM	15.2 µM	14 µM	27.4 µM	1.69 µM	5.38 µM	2.44 µM	5.99 µM	1.41 µM	3.06 µM	2.28 µM	6.24 µM	8.31 µM	23.9 µM
CN1CCN(C(=O)C(C)(C)c2ccc(C(=O)Nc3cn4cc(-c5ccncc5)ccc4n3)cc2)CC1	0.405 µM	7.16 µM	0.201 µM	> 100 µM	0.32 µM	2.51 µM	0.382 µM	> 70.2 µM	0.275 µM	17.5 µM	0.167 µM	1.57 µM	0.201 µM	1.35 µM	0.316 µM	1.01 µM	0.185 µM	> 56 µM	0.38 µM	10.5 µM
Cc1cc(NC(=O)NC(=O)c2ccccc2NC(=O)C(C)N)ccc1Oc1ncc(Br)cn1 (stereo not drawn)		25.1 µM		29.6 µM		2.88 µM		15.2 µM		15.9 µM		2.47 µM		61.5 µM		0.776 µM		44.4 µM		56.3 µM
COc1ccc(C/C(C)=C(/c2ccc(OCCN3CCCCC3)cc2)c2ccc(OC(=O)NCc3ccccc3)cc2)cc1	0.415 µM	0.78 µM	0.303 µM	0.746 µM	0.441 µM	0.868 µM	0.398 µM	0.778 µM	0.436 µM	0.838 µM	0.355 µM	0.716 µM	0.399 µM	0.963 µM	0.435 µM	0.876 µM	0.419 µM	0.808 µM	0.413 µM	0.787 µM
CC(C)(C)C(=O)OCC1C(=O)OCC1C(=O)N1Cc2cc3ccccc3nc2C1 (stereo not drawn)		23.1 µM		7.63 µM		14 µM		23 µM		29.8 µM		19.9 µM		4.82 µM		3.27 µM		3.17 µM		24.7 µM
O=C1/C(=C/c2ccccc2)CN(C(=O)CCN2CCOCC2)C/C1=C\c1ccccc1		16.2 µM		7.35 µM		15 µM		8.51 µM		24.2 µM		20 µM		3.3 µM		8.87 µM		1.55 µM		8.73 µM
Cc1ccccc1OCC(O)CN1CCN(c2ccc(Cl)cc2)CC1 (stereo not drawn)	17.4 µM	34.5 µM	18.5 µM	47.3 µM	18.6 µM	35.9 µM	11.7 µM	25.9 µM	21.2 µM	53.8 µM	15.4 µM	31 µM	16.3 µM	40.8 µM	20.2 µM	37.8 µM	16.1 µM	33.1 µM	17.4 µM	34.3 µM
